Reference: patent publication US20240269139A1, “COMPOUNDS FOR TARGETED PROTEIN DEGRADATION OF KINASES” (DANA-FARBER CANCER INSTITUTE, INC., priority 2020, published 2024)
Read-outs that look alike come from different tables or passages of the source.

Tests used:
Type in all cases: cell-based
[1] = molecular target: protein kinases (human kinome) (Homo sapiens, UniProt P07948); conditions: for logFC: LYN (P07948-1)
[2] = molecular target: T1, protein kinases (human kinome) (Homo sapiens, UniProt Q8TBX8); conditions: PIP4K2C Q8TBX8-1
T1 sequence (Q8TBX8 1-421): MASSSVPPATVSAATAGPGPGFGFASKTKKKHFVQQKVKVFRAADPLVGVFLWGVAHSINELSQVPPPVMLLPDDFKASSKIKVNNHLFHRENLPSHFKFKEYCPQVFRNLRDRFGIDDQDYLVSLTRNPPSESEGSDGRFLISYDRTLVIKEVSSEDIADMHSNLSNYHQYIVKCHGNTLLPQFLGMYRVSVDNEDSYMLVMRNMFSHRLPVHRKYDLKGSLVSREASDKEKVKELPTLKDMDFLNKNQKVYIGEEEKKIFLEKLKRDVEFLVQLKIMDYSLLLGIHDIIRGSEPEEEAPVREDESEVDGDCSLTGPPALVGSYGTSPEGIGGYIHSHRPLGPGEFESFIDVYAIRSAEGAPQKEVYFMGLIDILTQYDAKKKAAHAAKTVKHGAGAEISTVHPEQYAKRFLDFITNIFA

[3] = molecular target: protein kinases (human kinome) (Homo sapiens, UniProt O00311); conditions: for logFC: CDC7 (O00311-1)
[4] = molecular target: T2, protein kinases (human kinome) (Homo sapiens, UniProt O14757); conditions: for logFC: CHEK1 (O14757)
T2 sequence (O14757 1-476): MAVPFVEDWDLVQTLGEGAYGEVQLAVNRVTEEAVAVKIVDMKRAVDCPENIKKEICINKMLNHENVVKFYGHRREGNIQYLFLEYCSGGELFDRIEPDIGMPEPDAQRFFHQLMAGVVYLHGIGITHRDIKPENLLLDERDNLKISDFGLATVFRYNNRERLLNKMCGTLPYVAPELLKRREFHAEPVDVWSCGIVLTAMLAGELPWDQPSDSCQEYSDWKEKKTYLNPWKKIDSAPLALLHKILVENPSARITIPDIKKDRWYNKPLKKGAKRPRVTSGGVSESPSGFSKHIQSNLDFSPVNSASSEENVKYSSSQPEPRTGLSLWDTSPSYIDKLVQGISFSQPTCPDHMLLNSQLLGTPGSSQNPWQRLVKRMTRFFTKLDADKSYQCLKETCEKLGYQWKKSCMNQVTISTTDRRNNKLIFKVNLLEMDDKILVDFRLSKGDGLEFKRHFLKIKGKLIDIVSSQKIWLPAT

[5] = molecular target: protein kinases (human kinome) (Homo sapiens, UniProt Q9P1W9); conditions: experiment wp076; for logFC: PIM2 (Q9P1W9)
[6] = molecular target: protein kinases (human kinome) (Homo sapiens, UniProt P51617); conditions: IRAK1 (P51617)
Chain of protein kinases (human kinome) (Homo sapiens, UniProt P51617) (P51617 whole entry): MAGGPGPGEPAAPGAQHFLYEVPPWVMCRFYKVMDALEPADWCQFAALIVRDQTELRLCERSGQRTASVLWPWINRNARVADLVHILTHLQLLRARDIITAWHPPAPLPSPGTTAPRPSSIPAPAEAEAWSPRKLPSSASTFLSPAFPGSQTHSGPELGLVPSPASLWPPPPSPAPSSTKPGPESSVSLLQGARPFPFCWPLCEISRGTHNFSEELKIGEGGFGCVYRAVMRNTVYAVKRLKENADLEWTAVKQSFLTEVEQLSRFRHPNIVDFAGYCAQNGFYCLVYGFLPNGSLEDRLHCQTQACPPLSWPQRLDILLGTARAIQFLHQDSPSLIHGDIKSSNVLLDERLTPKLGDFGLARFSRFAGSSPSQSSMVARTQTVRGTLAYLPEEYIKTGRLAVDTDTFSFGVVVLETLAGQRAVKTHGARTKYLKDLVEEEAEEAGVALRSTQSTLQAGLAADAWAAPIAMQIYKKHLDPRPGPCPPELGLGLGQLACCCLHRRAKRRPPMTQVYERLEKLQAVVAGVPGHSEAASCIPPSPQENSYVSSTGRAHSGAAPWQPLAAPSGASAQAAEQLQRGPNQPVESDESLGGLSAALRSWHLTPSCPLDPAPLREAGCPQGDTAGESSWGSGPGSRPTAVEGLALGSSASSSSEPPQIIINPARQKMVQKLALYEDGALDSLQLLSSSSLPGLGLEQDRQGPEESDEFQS

Chain of protein kinases (human kinome) (Homo sapiens, UniProt P07948) (P07948 whole entry): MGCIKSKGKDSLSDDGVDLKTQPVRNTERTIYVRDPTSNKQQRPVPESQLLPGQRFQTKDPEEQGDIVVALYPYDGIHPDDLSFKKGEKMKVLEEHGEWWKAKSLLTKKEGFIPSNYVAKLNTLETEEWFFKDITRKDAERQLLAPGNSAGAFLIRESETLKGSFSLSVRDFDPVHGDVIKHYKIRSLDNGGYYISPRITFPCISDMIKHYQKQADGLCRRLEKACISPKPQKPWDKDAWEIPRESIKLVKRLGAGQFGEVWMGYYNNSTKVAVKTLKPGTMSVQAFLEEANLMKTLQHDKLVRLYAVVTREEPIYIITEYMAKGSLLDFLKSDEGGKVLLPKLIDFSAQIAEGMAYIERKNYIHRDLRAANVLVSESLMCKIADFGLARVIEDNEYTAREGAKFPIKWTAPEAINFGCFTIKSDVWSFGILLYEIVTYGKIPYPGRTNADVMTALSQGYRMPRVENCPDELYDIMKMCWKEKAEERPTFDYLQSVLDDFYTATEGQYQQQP
Chain of protein kinases (human kinome) (Homo sapiens, UniProt O00311) (O00311 whole entry): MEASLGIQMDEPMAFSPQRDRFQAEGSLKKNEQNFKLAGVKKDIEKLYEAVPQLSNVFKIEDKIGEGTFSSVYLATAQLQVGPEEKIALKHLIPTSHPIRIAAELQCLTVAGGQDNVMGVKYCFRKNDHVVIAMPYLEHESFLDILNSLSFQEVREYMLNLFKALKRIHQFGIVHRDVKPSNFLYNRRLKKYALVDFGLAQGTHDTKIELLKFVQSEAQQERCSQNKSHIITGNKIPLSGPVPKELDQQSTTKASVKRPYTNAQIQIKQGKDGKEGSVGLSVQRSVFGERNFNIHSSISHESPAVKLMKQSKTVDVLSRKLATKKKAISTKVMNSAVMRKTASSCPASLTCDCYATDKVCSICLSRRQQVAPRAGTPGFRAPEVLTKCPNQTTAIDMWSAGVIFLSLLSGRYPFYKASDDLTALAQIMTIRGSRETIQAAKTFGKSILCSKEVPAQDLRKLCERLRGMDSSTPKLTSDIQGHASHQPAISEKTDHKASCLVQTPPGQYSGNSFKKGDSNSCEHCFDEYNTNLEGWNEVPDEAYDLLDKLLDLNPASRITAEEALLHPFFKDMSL
Chain of protein kinases (human kinome) (Homo sapiens, UniProt Q9P1W9) (Q9P1W9 whole entry): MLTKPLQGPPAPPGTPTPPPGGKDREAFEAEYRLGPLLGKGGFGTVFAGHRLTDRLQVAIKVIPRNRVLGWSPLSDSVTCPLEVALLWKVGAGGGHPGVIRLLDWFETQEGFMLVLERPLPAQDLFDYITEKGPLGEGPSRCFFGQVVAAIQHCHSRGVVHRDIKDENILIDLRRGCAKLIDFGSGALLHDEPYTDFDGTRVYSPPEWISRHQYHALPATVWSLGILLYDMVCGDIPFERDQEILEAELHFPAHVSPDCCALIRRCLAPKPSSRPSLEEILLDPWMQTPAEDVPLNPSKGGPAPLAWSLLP

With `Cc1ccc(NC(=O)c2cccc(C(F)(F)F)c2)cc1N1Cc2cnc(Nc3ccc(N4CCN(Cc5cn(CCCCCOc6cccc7c6C(=O)N(C6CCC(=O)NC6=O)C7=O)nn5)CC4)nc3)nc2N(C)C1=O` (stereo not drawn) [DB0646, N-(3-(7-((6-(4-((1-(5-((2-(2,6-Dioxopiperidin-3-yl)-1,3-dioxoisoindolin-4-yl)oxy)pentyl)-1H-1,2,3-triazol-4-yl)methyl)piperazin-1-v)pyridin-3-yl)amino)-1-methyl-2-oxo-1,4-dihydropyrimido[4,5-d]pyrimidin-3(2H)-yl)-4-methylphenyl)-3-(trifluoromethyl)benzamide] the “logFC of LYN (P07948-1)” value ([1]; Experiment wp172) was −0.7938, the logFC ([1]; experiment wp172) was −0.7938 and the logFC ([2]; experiment wp107) was −0.353. It also gave a logFC ([2]; experiment wp117) of −0.3503 and a logFC ([2]; experiment wp160, 8 hr) of −0.4714.
For `Cc1ncsc1-c1ccc([C@H](C)NC(=O)[C@@H]2C[C@@H](O)CN2C(=O)[C@@H](NC(=O)CCOCCOCCN2CCN(c3ccc(Nc4ncc(Cl)c(Nc5ccccc5S(=O)(=O)C(C)C)n4)cc3)CC2)C(C)(C)C)cc1` [FMF.06.098.1], the logFC ([3]; experiment wp108) was −0.3323, the logFC ([3]; experiment wp131) was −0.4109 and the “logFC of CDC7 (O00311-1)” value ([3]; Experiment wp108) was −0.3323. The “logFC of CDC7 (O00311-1)” value ([3]; experiment wp131) was −0.4109, the logFC ([4]; experiment wp108) was −0.3674 and the logFC ([4]; experiment wp114) was −0.4124. For the same compound, the “logFC of CHEK1 (O14757)” value ([4]; Experiment wp108) was −0.3674 and the “logFC of CHEK1 (O14757)” value ([4]; Experiment wp114) was −0.4124.
With `CCc1cnn2c(N(Cc3ccc(N)nc3)C(=O)CCOCCOCCOCCNC(=O)CNc3cccc4c3C(=O)N(C3CCC(=O)NC3=O)C4=O)cc(N3CCCC[C@H]3CCO)nc12` (stereo partly drawn) [MFH.5.115.2] the logFC [5] was −1.679 and the “logFC of PIM2 (Q9P1W9)” value [5] was −1.679.
`O=C1CCC(N2C(=O)c3cccc(NCCCCCCCCN4CCC(NC(=O)c5[nH]ncc5NC(=O)c5c(Cl)cccc5Cl)CC4)c3C2=O)C(=O)N1` (stereo not drawn) [MFH.5.126.1] was tested, and the logFC ([4]; experiment wp076) was −0.3606, the “logFC of CHEK1 (O14757)” value ([4]; experiment wp076) was −0.3606 and the logFC [5] was −3.019. For the same compound, the “logFC of PIM2 (Q9P1W9)” value [5] was −3.019.
`Cc1ccc(C(=O)Nc2ccc(CN3CCN(CCCOCCOCCOCCNC(=O)COc4cccc5c4C(=O)N(C4CCC(=O)NC4=O)C5=O)CC3)c(C(F)(F)F)c2)cc1C#Cc1cnc2cccnn12` (stereo not drawn) [SB1.G.187] was tested, and the logFC ([1]; experiment wp172) was −1.23, the “logFC LYN (P07948-1)” value ([1]; experiment wp172, direction of change down) was −1.23 and the logFC ([6]; experiment wp056) was −1.578. The logFC ([6]; experiment wp056, direction down) was −1.578, the logFC ([6]; experiment wp103) was −1.504 and the logFC ([6]; experiment wp103, direction down) was −1.504. It also gave a logFC ([6]; experiment wp105) of −1.404, a logFC ([6]; experiment wp105, direction down) of −1.404 and a logFC ([6]; experiment wp107) of −1.996. The logFC ([6]; experiment wp107, direction down) was −1.996, the logFC ([6]; experiment wp172) was −1.572 and the logFC ([6]; experiment wp172, direction down) was −1.572.
For `CC(C)S(=O)(=O)c1ccccc1Nc1nc(Nc2ccc(N3CCN(CCOCCNC(=O)CNc4cccc5c4C(=O)N(C4CCC(=O)NC4=O)C5=O)CC3)cc2)ncc1Cl` (stereo not drawn) [SK.3.91], the logFC ([3]; experiment wp133, 4 hr) was −0.3652 and the “logFC of CDC7 (O00311-1)” value ([3]; experiment wp133, 4 hr) was −0.3652.
Compound `Cc1ccc(C(=O)Nc2ccc(CN3CCN(CCOCCOCCNC(=O)CNc4cccc5c4C(=O)N(C4CCC(=O)NC4=O)C5=O)CC3)c(C(F)(F)F)c2)cc1C#Cc1cnc2cccnn12` (stereo not drawn) [TL13.150] has a logFC ([6]; experiment wp081) of −2.834 and a logFC ([6]; experiment wp081, direction down) of −2.834.
In the case of `Nc1ncc(-c2ccc(S(=O)(=O)N(CCCNC(=O)CCOCCOCCOCCOCCOCCNc3cccc4c3C(=O)N(C3CCC(=O)NC3=O)C4=O)C3CC3)cc2)cc1-c1ccc2c(c1)CCNC2=O` (stereo not drawn) [WH.10417.099], the logFC ([2]; experiment wp056) is reported as −0.5009, the logFC ([2]; experiment wp103) is reported as −0.5201 and the logFC ([2]; experiment wp105) is reported as −0.3715. For the same compound, the logFC ([2]; experiment wp107) was −0.5734.
